Results on 4 molecules are retold here after patent US20200140812A1, “NOVEL METHODS FOR THE GENERATION AND USE OF HUMAN INDUCED NEURAL BORDER STEM CELLS” (HI-STEM gGmbH, priority 2017, published 2020).

The subject of one assay is pNBSCs. Description: Culture of pNBSCs on Matrigel in absence of feeders with Notch-ligands. Type of assay: cell-based, mouse. The conditions noted are these: cultured on MG with DII4 and Jagged1 together, 500 ng/ml each. On the procedure: a, Preparation of E8.5 stage embryos for isolation of pNBSCs. Representative microscopy pictures of an E8.5 stage embryo prior to dissection of neural tissue. […] Results are shown for two independent pNBSC clones and E13.5 stage derived RG-like SCs (n=3; t-test, **P<0.01, Mean with SEM). g, Culture of pNBSCs on inactivated MEFs (feeder) or Matrigel in presence or absence of Notch-ligands 500 ng/ml DII4 and 500 ng/ml Jagged-1. h, Regional identity of pNBSCs. mRNA expression of region specific markers was determined in three independent pNBSCs lines. Expression was normalized to whole E13.5 stage fetal brains. i, Flow cytometry data of a pNBSC line under maintenance and neural crest priming condition. pNBSCs were either cultured in CAP or CA+BMP4 for 5 days before levels of Ssea1 and P75 were determined by flow cytometry. j, Immunofluorescence stainings for serotonin on neuronal differentiation. pNBSCs were differentiated in presence of Purmorphamine for 3 days and matured for additional 2 weeks before stainings were performed; scale bar 50 μm. k, BF pictures of pNBSCs embedded as single cell suspension in MG after CNS- and NC-priming. pNBSCs were cultured in CSP for 6 days (upper panel) or CABF for 10 days (lower panel). […]

The target of a further assay is T1, P2RX3-receptors (Homo sapiens, UniProt P56373).
T1 construct: endogenous in cells; host or cells: sensory neurons differentiated from human iNBSCs (WT and SCN9a-/- cultures)
T1 sequence (P56373 1-397): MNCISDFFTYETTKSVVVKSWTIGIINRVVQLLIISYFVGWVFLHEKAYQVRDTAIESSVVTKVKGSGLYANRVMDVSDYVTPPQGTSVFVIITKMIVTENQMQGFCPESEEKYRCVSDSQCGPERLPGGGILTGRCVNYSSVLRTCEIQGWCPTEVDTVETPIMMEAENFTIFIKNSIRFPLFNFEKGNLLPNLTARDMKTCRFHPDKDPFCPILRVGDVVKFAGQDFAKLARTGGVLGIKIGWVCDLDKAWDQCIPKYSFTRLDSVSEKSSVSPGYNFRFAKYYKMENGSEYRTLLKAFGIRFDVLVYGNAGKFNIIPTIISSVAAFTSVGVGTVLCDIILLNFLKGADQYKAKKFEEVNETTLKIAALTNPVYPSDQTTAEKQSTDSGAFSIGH
Briefly: Calcium flux measurements (Fluo-3 AM) in iNBSC-derived sensory neurons. Type of assay: cell-based. On the procedure: Cell cultures were incubated in a solution containing the cell-permeable fluorescent Ca2+ indicator Fluo-3 AM (2 μM; F1242, Thermo Scientific™) and Cell Tracker Red CMTPX (1 μM; C34552, Thermo Scientific™) to delineate cell membranes. Dye loading was carried out in an incubator at 37° C., 5% CO2 for 30 min.
Imaging of fluorescently labeled cells was performed on a TCS SP5 microscope (Leica) equipped with a 20×(1 numerical aperture) water-immersion objective. Images (512×512 pixels) were acquired at 1000 Hz speed every 0.8-1.6 seconds with 0.5 μm per pixel resolution in the xy dimension, and 3-4 μm steps in the z dimension. Argon and HeNe-543 lasers were used to excite Fluo-3 AM and Cell Tracker Red CMTPX dyes, respectively. […] After recording baseline fluorescence for 2 minutes, α,β-methylene ATP was applied (30 μM in ACSF; COMPANY) for 2 minutes. […]
We obtained relative fluorescence changes (Fi/F0), where F0 is the fluorescence image formed by averaging the first 50 frames of the sequence, and F(i) represents each (i) frame of the recording. […]
We then studied global calcium activity by averaging fluorescence intensity in the whole image before and in response to stimulation with α,β-methylene ATP in WT−(n=3) and SCN9−/− (n=4) neuronal cultures.
In general terms: Calcium flux is commonly read through the fluorescence of an indicator in the cells.

Consider Jagged1: Notch-ligand, for which, in the assay with pNBSCs, the “rapid differentiation of pNBSCs in the absence of feeders” value is listed as “partially halted”.
With `O=C(O)c1cc(C(=O)O)c(C(=O)N(Cc2cccc(Oc3ccccc3)c2)[C@H]2CCCc3ccccc32)cc1C(=O)O` [A-317491], the “α,β-Methylene-ATP-induced calcium flux (neuronal activity) in the presence of antagonist” value on P2RX3-receptors (1 μM A-317491, stimulation with 30 μM α,β-methylene ATP, WT sensory neurons, compared to controls, t-test P<0.05) is reported as “significantly reduced”.
Consider `Nc1ncnc2c1ncn2[C@@H]1O[C@H](COP(=O)(O)CP(=O)(O)OP(=O)(O)O)[C@@H](O)[C@H]1O` [α,β-Methylene-ATP], for which the “neuronal activity by calcium flux measurements upon stimulation” value at P2RX3-receptors (30 μM α,β-methylene ATP, WT iNBSC-derived sensory neurons, Fluo-3 AM fluorescence relative to baseline) is “robust increase of activity”.
Consider DII4: Notch-ligand, for which, in the assay on pNBSCs, the “rapid differentiation of pNBSCs in the absence of feeders” value was “partially halted”.
